PMC12518996 (Frontiers in Pharmacology, 2025)

Assays:
Format in all cases: in vitro ADME
[1] = biological target: T1, CYP2C8 (Homo sapiens, UniProt P10632); experiment: Metabolite formation by recombinant human CYP2C8; settings: trazodone 4 μM; NADPH; 37 °C, 40 min
T1 sequence (P10632 1-490): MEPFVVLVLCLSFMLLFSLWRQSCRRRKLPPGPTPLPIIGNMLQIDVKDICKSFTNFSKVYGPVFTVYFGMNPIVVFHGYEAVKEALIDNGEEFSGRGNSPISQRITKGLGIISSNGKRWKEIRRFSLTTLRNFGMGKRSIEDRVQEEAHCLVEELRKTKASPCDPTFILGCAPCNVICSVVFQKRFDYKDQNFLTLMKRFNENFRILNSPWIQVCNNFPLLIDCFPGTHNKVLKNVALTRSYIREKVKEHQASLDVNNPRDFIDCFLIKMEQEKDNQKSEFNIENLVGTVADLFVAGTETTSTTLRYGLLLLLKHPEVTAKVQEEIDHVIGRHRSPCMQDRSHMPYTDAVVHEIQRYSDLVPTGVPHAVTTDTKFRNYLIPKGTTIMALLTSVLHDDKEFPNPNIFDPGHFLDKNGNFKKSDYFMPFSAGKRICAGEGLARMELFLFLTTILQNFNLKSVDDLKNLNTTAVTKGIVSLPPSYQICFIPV
Procedure: (§1) To confirm the role of individual CYP isoforms in metabolizing trazodone, recombinant human and rat CYP enzymes were employed in separate incubations. […] Each reaction was terminated with acetonitrile, centrifuged, and the supernatant was analyzed by identical UHPLC-Orbitrap setup outlined in §2.2, allowing direct comparison of metabolite spectra across all in-vitro systems. […] This procedure helped confirm the contributions of individual isoforms to specific biotransformation reactions.

[2] = biological target: T2, CYP3A2 (Rattus norvegicus, UniProt P05183); experiment: Metabolite formation by recombinant rat CYP3A2; settings: trazodone 4 μM; NADPH; 37 °C, 40 min
T2 sequence (P05183 1-504): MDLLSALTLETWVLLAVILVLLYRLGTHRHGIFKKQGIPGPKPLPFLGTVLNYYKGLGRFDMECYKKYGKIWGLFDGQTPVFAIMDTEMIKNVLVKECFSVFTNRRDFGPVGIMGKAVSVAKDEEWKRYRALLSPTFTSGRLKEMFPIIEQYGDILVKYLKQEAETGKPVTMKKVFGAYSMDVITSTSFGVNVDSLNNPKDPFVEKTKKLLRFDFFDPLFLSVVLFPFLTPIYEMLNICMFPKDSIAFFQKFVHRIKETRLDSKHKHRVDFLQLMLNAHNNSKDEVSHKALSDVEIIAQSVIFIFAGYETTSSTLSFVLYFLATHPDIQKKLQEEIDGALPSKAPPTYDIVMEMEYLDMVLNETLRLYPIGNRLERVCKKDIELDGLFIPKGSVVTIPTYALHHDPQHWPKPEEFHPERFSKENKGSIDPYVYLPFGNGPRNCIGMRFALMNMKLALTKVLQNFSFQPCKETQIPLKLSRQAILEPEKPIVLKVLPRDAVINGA
Procedure: Each reaction was terminated with acetonitrile, centrifuged, and the supernatant was analyzed by identical UHPLC-Orbitrap setup outlined in §2.2, allowing direct comparison of metabolite spectra across all in-vitro systems.

[3] = biological target: T3, FMO3 (Homo sapiens, UniProt P31513); experiment: Metabolite formation by recombinant human FMO3; settings: trazodone 4 μM; 37 °C, 40 min
T3 sequence (P31513 1-532): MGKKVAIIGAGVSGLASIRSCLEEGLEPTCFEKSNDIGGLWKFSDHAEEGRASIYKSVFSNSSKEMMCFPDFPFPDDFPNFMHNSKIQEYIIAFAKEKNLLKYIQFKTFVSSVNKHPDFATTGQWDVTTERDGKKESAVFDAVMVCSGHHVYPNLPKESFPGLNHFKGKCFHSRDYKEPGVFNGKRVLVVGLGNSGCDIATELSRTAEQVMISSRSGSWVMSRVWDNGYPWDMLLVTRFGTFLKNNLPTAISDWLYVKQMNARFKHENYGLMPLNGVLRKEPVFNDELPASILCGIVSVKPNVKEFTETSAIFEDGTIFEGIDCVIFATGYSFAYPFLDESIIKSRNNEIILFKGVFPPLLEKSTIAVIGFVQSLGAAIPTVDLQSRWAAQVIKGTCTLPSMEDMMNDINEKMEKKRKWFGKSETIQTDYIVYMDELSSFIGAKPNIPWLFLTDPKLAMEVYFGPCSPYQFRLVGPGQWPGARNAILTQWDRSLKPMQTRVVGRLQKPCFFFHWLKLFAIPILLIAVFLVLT

[4] = biological target: T4, CYP1B1 (Rattus norvegicus, UniProt Q64678); experiment: Metabolite formation by recombinant rat CYP1B1; settings: trazodone 4 μM; NADPH; 37 °C, 40 min
T4 sequence (Q64678 1-543): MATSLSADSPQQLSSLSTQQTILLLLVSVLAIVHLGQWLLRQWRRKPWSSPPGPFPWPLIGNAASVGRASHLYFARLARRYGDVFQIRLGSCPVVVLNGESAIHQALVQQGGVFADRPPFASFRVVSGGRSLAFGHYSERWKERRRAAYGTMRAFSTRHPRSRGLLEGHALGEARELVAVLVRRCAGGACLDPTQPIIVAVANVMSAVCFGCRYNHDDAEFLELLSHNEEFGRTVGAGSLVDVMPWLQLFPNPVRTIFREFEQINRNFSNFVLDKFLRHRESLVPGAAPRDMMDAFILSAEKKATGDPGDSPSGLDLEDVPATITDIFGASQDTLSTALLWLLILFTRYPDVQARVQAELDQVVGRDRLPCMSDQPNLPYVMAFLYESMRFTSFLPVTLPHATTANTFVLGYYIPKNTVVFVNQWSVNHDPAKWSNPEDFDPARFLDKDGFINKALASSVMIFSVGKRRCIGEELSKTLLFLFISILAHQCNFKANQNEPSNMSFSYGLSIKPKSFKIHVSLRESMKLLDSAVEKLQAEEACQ
Procedure: as §1

O=c1n(CCCN2CCNCC2)nc2ccccn12 [Metabolite M15]
Formation of trazodone phase I metabolite by recombinant human CYP2C8 (as LC/MS peak areas) [1]: 26 | Formation of trazodone phase I metabolite by recombinant rat CYP3A2 (as LC/MS peak areas) [2]: 3368 | Formation of trazodone phase I metabolite by recombinant human FMO3 (as LC/MS peak areas) [3]: 0 | Formation of trazodone phase I metabolite by recombinant rat CYP1B1 (as LC/MS peak areas) [4]: 22

O=c1n(CCCO)nc2ccccn12 [Metabolite M20]
Formation of trazodone phase I metabolite by recombinant human CYP2C8 (as LC/MS peak areas) [1]: 0 | Formation of trazodone phase I metabolite by recombinant rat CYP3A2 (as LC/MS peak areas) [2]: 5761 | Formation of trazodone phase I metabolite by recombinant human FMO3 (as LC/MS peak areas) [3]: 0 | Formation of trazodone phase I metabolite by recombinant rat CYP1B1 (as LC/MS peak areas) [4]: 94

Clc1cccc(N2CCNCC2)c1 [mCPP, m-chlorophenylpiperazine]
Formation of trazodone phase I metabolite by recombinant human CYP2C8 (as LC/MS peak areas) [1]: 327 | Formation of trazodone phase I metabolite by recombinant rat CYP3A2 (as LC/MS peak areas) [2]: 45534 | Formation of trazodone phase I metabolite by recombinant human FMO3 (as LC/MS peak areas) [3]: 4 | Formation of trazodone phase I metabolite by recombinant rat CYP1B1 (as LC/MS peak areas) [4]: 724
